Structures are written as SMILES.

The target in this experiment is T1, A5-LOX (soybean); arachidonate-5-lipoxygenase.
T1 construct: gene LOX1.1; most likely lipoxygenase-1
The experiment in a line: spectrophotometric, absorbance at […] nm. The experiment is classed as biochemical, Glycine max. Conditions: linoleic acid substrate ([…] μL of […]), sodium phosphate pH […] °C, […] min preincubation.

With `O=c1cc(-c2ccccc2)oc2cc(O)c(O)c(O)c12` [Baicalein], the “Anti-A5-LOX activity IC50 (μg mL^- 1)” value was 1.76 ± 0.15 μg mL^− 1.
